This assay addresses T1, proteins of HeLa wt cells (Homo sapiens, UniProt P30837).
T1 sequence (P30837 18-517): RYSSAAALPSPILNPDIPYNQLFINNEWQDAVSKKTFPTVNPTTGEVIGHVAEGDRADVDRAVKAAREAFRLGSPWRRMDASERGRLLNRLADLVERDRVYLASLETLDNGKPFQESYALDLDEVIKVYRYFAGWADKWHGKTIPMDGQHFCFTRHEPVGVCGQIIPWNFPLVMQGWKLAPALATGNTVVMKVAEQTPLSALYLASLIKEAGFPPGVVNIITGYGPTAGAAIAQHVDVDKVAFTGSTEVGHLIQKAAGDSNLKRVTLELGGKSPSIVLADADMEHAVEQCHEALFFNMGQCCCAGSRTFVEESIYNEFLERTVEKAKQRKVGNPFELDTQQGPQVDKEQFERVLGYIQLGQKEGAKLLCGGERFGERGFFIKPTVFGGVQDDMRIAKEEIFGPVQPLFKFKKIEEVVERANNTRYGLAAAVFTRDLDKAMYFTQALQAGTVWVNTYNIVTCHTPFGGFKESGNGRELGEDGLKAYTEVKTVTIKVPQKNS
Kind of assay: biochemical. The settings on record: for normalized.Reporter.intensity: single replicates n1-n3. Here is the method: Adherent cells were washed in the dish once with DPBS and harvested by Trypsin–EDTA (0.25%, Thermo Fisher Scientific, Waltham, MA, USA, #25,200,056) treatment. After addition of 35 mL DPBS, the cells were pelleted by centrifugation (300 rcf, 5 min, 4 °C), and washed twice by re-suspending and pelleting using 45 mL and 1 mL DPBS, respectively, to remove excess trypsin and for transfer into pre-weighed 2 mL Eppendorf tubes to determine the cell pellet wet weights as quality check after centrifugation (300 rcf, 5 min, 4 °C) and complete removal of the supernatant. Cells for TPP-TR were resuspended using 1 mL, and cells for TPP-CCR were resuspended using 0.4 mL ice-cold DPBS, respectively, supplemented with protease inhibitor cocktail (Roche, Basel, Switzerland, #5,892,791,001). […] Cell suspensions were shortly centrifuged (1 s or less) using a benchtop centrifuge to release trapped air and to achieve an even liquid level without pelleting the cells. The samples were then temperature treated by a 7 min pre-incubation at RT, 3 min temperature treatment in the PCR cycler (DNA Engine Tetrad 2, lid temperature 70 °C) at different temperatures (37 °C or 50 °C for TPP-CCR or the temperatures given in Table 2 for TPP-TR) and a 3 min post-incubation at RT in a metal heating block for uniform heat dissipation.
After temperature treatment, samples were supplemented with lysis buffer (final concentrations: 0.36 U/µL benzonase, 1.5 mM MgCl2, 1 mM Na3VO4, 10 mM NaF, 2.5 mM Na4P2O7, 0.8% w/v NP-40) for 1 h on ice. The lysates were cleared from cell debris as well as denatured and precipitated proteins by centrifugation at 20,000 rcf and 4 °C for 30 min. The total protein concentration of the resulting cell extracts containing the fraction of soluble, non-denatured proteins was determined (Pierce 660 nm Protein Assay, BSA as standard). Cell extracts were shock frozen in liquid nitrogen and stored at -80 °C. The three replicates for TPP-TR and TPP-CCR were prepared on consecutive days, respectively. The two (37 °C or 50 °C) x ten (concentrations) x three (replicates) = 60 TPP-CCR samples and two (treatment and control) x ten (temperatures) x three (replicates) = 60 TPP-TR samples were analyzed by LC–MS/MS. GRASP55 was additionally quantified from the TPP-TR samples by immunoblotting as described in the respective section.
For TPP-CCR, SP3 was performed as described with slight modifications to the original protocol using on average 5 µg total protein per sample and resulting in theoretically 5 µg peptides in 22 µL 50 mM triethylammonium bicarbonate per sample. For each of the two (treatment and control) x three (replicates) = six TPP-TR temperature treatment sample sets, the same volume for each of the ten temperature samples was used for SP3 processing, thus, maintaining the information about the temperature dependent non-denatured protein content. This volume was calculated such that the lowest two temperature samples (36.5 °C and 41.2 °C) contained 10 µg total protein on average. The samples were diluted using SDS containing buffer (20 µL final, final concentrations: 7.5% glycerol, 3% SDS, 37.5 mM Tris/HCl pH 7.0) and the proteins were reduced, alkylated, and precipitated on the solid phase as described using adjusted volumes (2 × due to processing 10 µg instead of 5 µg). Volumes for washing of the aggregated proteins on the solid phase and for tryptic digestion were kept unchanged, however, to maintain the maximal total protein to trypsin/Lys-C ratio at 50:1 in the two rounds of digestion (13 h and 4 h), respectively, 2 × 0.2 µg trypsin/Lys-C was used per sample, theoretically resulting in at most about 10 µg peptides in 22 µL 50 mM triethylammonium bicarbonate.

Molecules are shown by their SMILES. Where “and” joins values, the source holds several entries; their conditions need not be identical. Equal entries are not always repeated.

As for `CCCCCC1=C/C(=C/c2[nH]c(-c3ccc[nH]3)cc2OC)N=C1C` [Prodigiosin, prodigiosin], the midpoint of the response, the EC50, lay at 4.37 nM. Also, the “diff pseudoR2(50-37°C)” value (ALDH1B1) is 0.88. In addition, the “pseudoR2 (dose response curve fit, 37°C)” value (ALDH1B1, 37°C) came to 0.0136. Moreover, the normalized.Reporter.intensity (ALDH1B1, 37°C, 0.0976562 nM prodigiosin) was -0.04 and -1.95 and 1.19. Further, where the note is “ALDH1B1, 37°C, 0.390625 nM prodigiosin”, the normalized.Reporter.intensity is 0.86 and 1.70 and 1.19. The normalized.Reporter.intensity (ALDH1B1, 37°C, 1.5625 nM prodigiosin) is 1.45 and -0.51 and 0.96. Where the note is “ALDH1B1, 37°C, 6.25 nM prodigiosin”, the normalized.Reporter.intensity was 2.17 and -0.34 and 2.41. Where the note is “ALDH1B1, 37°C, 25 nM prodigiosin”, the normalized.Reporter.intensity is 1.79 and 0.42 and 0.87. Moreover, the normalized.Reporter.intensity (ALDH1B1, 37°C, 100 nM prodigiosin) is -0.83 and -1.09 and 2.36. Moreover, for the setting “ALDH1B1, 37°C, 400 nM prodigiosin”, the normalized.Reporter.intensity was -1.07 and -1.13 and 1.65. Where the note is “ALDH1B1, 37°C, 1600 nM prodigiosin”, the normalized.Reporter.intensity is -1.06 and 0.17 and 2.67. Moreover, the normalized.Reporter.intensity (ALDH1B1, 37°C, 6400 nM prodigiosin) is -0.10 and 1.67 and -1.95. Besides, the “H (dose response curve fit parameters, 37°C)” value (ALDH1B1, 37°C, Hill slope of fit) was 1.47e-8. Also, under “ALDH1B1, 50°C”, the “pseudoR2 (dose response curve fit, 50°C)” value amounted to 0.89. The normalized.Reporter.intensity (ALDH1B1, 50°C, 0.0976562 nM prodigiosin) was 0.23 and -0.0339 and 0.17. Further, the normalized.Reporter.intensity (ALDH1B1, 50°C, 0.390625 nM prodigiosin) is 0.32 and 0.04 and 0.17. Besides, the normalized.Reporter.intensity (ALDH1B1, 50°C, 1.5625 nM prodigiosin) is 0.40 and 0.42 and 0.21. In addition, the normalized.Reporter.intensity (ALDH1B1, 50°C, 6.25 nM prodigiosin) is 0.69 and 0.56 and 0.41. The normalized.Reporter.intensity (ALDH1B1, 50°C, 25 nM prodigiosin) is 0.66 and 0.74 and 0.67. Besides, the normalized.Reporter.intensity (ALDH1B1, 50°C, 100 nM prodigiosin) was 1.06 and 0.92 and 1.01. Besides, the normalized.Reporter.intensity (ALDH1B1, 50°C, 400 nM prodigiosin) was 0.70 and 0.97 (2×). In addition, the normalized.Reporter.intensity (ALDH1B1, 50°C, 1600 nM prodigiosin) was 0.78 and 0.95 and 0.92. For the same compound, the normalized.Reporter.intensity (ALDH1B1, 50°C, 6400 nM prodigiosin) is 1.11 and 0.90 and 1.01. The “H (dose response curve fit parameters, 50°C)” value (ALDH1B1, 50°C, Hill slope of fit) was determined as 0.60.

(Values after article PMC10552397 (Cell Communication and Signaling : CCS, 2023).)
